For eleven compounds, IC50 results are on record in patent publication US7148249B2, “Indolinones substituted by heterocycles, the preparation thereof and their use as medicaments” (Boehringer Ingelheim Pharma GmbH & Co. KG, priority 2002, dated 2006).

pIC50: −log10 of the molar value.

One experiment relates to Human umbilical endothelial cells (HUVEC). Kind of experiment: Inhibition of VEGF165-stimulated HUVEC proliferation (3H-thymidine incorporation). Particulars: HUVEC proliferation stimulated with 5 ng/ml VEGF165 and 10 μg/ml heparin; 76 h incubation + 16 h 3H-thymidine. The experiment is classed as cell-based. As to the method:
Human umbilical endothelial cells (HUVEC) were cultivated in IMDM (Gibco BRL), supplemented with 10% foetal calf serum (FBS) (Sigma), 50 μM of β-mercaptoethanol (Fluka), standard antibiotics, 15 μg/ml of endothelial cell growth factor (ECGS, Collaborative Biomedical Products) and 100 μg/ml of heparin (Sigma) on gelatine-coated culture dishes (0.2% gelatine, Sigma) at 37° C., under 5% CO2 in a water-saturated atmosphere.
In order to investigate the inhibitory activity of the compounds according to the invention the cells were “starved” for 16 hours, i.e. kept in culture medium without growth factors (ECGS+heparin). The cells were detached from the culture dishes using trypsin/EDTA and washed once in serum-containing medium. Then they were seeded out in amounts of 2.5×10^3 cells per well.
The proliferation of the cells was stimulated with 5 ng/ml of VEGF165 (vascular endothelial growth factor; H. Weich, GBF Braunschweig) and 10 μg/ml of heparin. As a control, 6 wells in each dish were not stimulated.
The compounds according to the invention were dissolved in 100% dimethylsulphoxide and added to the cultures in various dilutions as triple measurements, the maximum dimethylsulphoxide concentration being 0.3%.
The cells were incubated for 76 hours at 37° C., then for a further 16 hours ^3H-thymidine (0.1 μCi/well, Amersham) was added in order to determine the DNA synthesis. Then the radioactively labelled cells were immobilised on filter mats and the radioactivity incorporated was measured in a β-counter. In order to determine the inhibitory activity of the compounds according to the invention the mean value of the non-stimulated cells was subtracted from the mean value of the factor-stimulated cells (in the presence or absence of the compounds according to the invention).
The relative cell proliferation was calculated as a percentage of the control (HUVEC without inhibitor) and the concentration of active substance which inhibits the proliferation of the cells by 50% (IC50) was determined.
For `COc1cc(N/C(=C2\C(=O)Nc3cc(F)ccc32)c2ccc3c(c2)OCCO3)ccc1N(C)C(=O)CN(C)C` [(bc), 6-fluoro-3-(Z)-{1-[4-(N-dimethylaminomethylcarbonyl-N-methyl-amino)-3-methoxy-phenylamino]-1-(1,2-ethylenedioxyphen-4-yl)-methylene}-2-indolinone], the pIC50 was 8.30.

Regarding `Cn1cnc2cc(/C(Nc3ccc(N4CCCC4=O)cc3)=C3/C(=O)Nc4cc(F)ccc43)ccc21` [(as), 3-(Z)-{1-[4-(pyrrolid-2-on-1-yl)-phenylamino]-1-(1-methyl-benzimidazol-5-yl)-methylene}-6-fluoro-2-indolinone], the pIC50 is 7.74.

Staying with this experiment, now noted: Homo sapiens; HUVEC proliferation stimulated with 5 ng/ml VEGF165 and 10 μg/ml heparin; 76 h incubation + 16 h 3H-thymidine.
Turning to `COC(=O)c1ccc2c(c1)NC(=O)/C2=C(\Nc1ccc(C(=O)N(C)CCCN(C)C)cc1)c1ccc2c(c1)OCCO2` [(ae), 3-(Z)-{1-(4-[N-methyl-N-(3-dimethylaminopropyl)aminocarbonyl]-phenylamino)-1-(3,4-ethylenedioxyphenyl)-methylene}-6-methoxycarbonyl-2-indolinone], the negative logarithm of the IC50 (pIC50) was 9.30.

Turning to `CCN(CC)CCS(=O)(=O)c1ccc(N/C(=C2\C(=O)Nc3cc(Cl)ccc32)c2ccc3c(c2)OCO3)cc1` [(ap), 3-(Z)-{1-(4-[2-(diethylamino)ethyl-sulphonyl]-phenylamino)-1-(3,4-methylenedioxyphenyl)-methylene}-6-chloro-2-indolinone], the pIC50 is 6.92. Still for that read-out and setting: then `CN(C)CCN(c1ccc(N/C(=C2\C(=O)Nc3cc(F)ccc32)c2ccc3c(c2)OCCO3)cc1)S(C)(=O)=O` [(ab), 3-(Z)-{1-(4-[N-methanesulphonyl-N-(2-dimethylaminoethyl)-amino]-phenylamino)-1-(3,4-ethylenedioxyphenyl)-methylene}-6-fluoro-2-indolinone], with 9.00; and `COC(=O)c1ccc2c(c1)NC(=O)/C2=C(\Nc1ccc(C(=O)N(C)CCN(C)C)cc1)c1ccc2c(c1)OCO2` [(af), 3-(Z)-{1-(4-[N-methyl-N-(2-dimethylaminoethyl)aminocarbonyl]-phenylamino)-1-(3,4-methylenedioxyphenyl)-methylene}-6-methoxycarbonyl-2-indolinone], with 9.30.

Consider `CN(C)Cc1ccc(N/C(=C2\C(=O)Nc3ccccc32)c2ccc3c(c2)ncn3C)cc1` [(aq), 3-(Z)-{1-[4-(dimethylaminomethyl)-phenylamino]-1-(1-methyl-benzimidazol-5-yl)-methylene}-2-indolinone], for which the pIC50 was 7.62.

Consider `CN(C)Cc1ccc(N/C(=C2\C(=O)Nc3cc(Cl)ccc32)c2ccc3c(c2)OCCO3)cc1` [(g), 3-(Z)-{1-[4-(dimethylaminomethyl)-phenylamino]-1-(3,4-ethylenedioxyphenyl)-methylene}-6-chloro-2-indolinone], for which the pIC50 was 8.05.

As to `CC(=O)N(CCCN(C)C)c1ccc(N/C(=C2\C(=O)Nc3cc(Cl)ccc32)c2ccc3c(c2)OCCO3)cc1` [(m), 3-(Z)-{1-(4-[N-acetyl-N-(3-dimethylaminopropyl)-amino]-phenylamino)-1-(3,4-ethylenedioxyphenyl)-methylene}-6-chloro-2-indolinone], the pIC50 was 9.52.

Regarding `CCC(=O)N(CCCN(C)C)c1ccc(N/C(=C2\C(=O)Nc3cc(Cl)ccc32)c2ccc3c(c2)OCCO3)cc1` [(n), 3-(Z)-{1-(4-[N-propionyl-N-(3-dimethylaminopropyl)-amino]-phenylamino)-1-(3,4-ethylenedioxyphenyl)-methylene}-6-chloro-2-indolinone], the pIC50 was 9.00. On to `CN(C)CCN(C(=O)c1cccnc1)c1ccc(N/C(=C2\C(=O)Nc3cc(Cl)ccc32)c2ccc3c(c2)OCO3)cc1` [(ao), 3-(Z)-{1-(4-[N-(3-pyridylcarbonyl)-N-(2-dimethylaminoethyl)-amino]-phenyl-amino)-1-(3,4-methylenedioxyphenyl)-methylene}-6-chloro-2-indolinone], for which the negative logarithm of the IC50 (pIC50) is 8.22.
